In the SangsterLogP compilation:

test: method code SF-AS, from DOI: 10.1021/jm00146a003, PMID: 4020837; conditions: pH 7.4

Which logD does the source give for `COCC(O)Cn1cnc([N+](=O)[O-])c1I` (centres undefined) here?
The logD was 0.41.

For `Cn1cnc([N+](=O)[O-])c1I`, which logD is on record?
The logD was 1.

Which logD does the source give for `CCOC(=O)Cn1cnc([N+](=O)[O-])c1I` here?
The logD was 0.57.

With `Cn1cnc(I)c1[N+](=O)[O-]` as the compound, how does the logD read?
The logD was 1.29.

With `O=C(Cn1cnc([N+](=O)[O-])c1I)NCc1ccc[n+]([O-])c1` as the compound, how does the logD read?
Its logD is -1.4.

For `CCOC(=O)Cn1cnc(I)c1[N+](=O)[O-]`, which logD is on record?
The logD was 0.93.

Which logD does the source give for `O=[N+]([O-])c1nc[nH]c1I` here?
The logD was 0.28.

Which logD does the source give for `O=C(Cn1cnc([N+](=O)[O-])c1I)Nc1cccnc1` here?
The logD was 0.46.

For `COCC(O)Cn1cnc(I)c1[N+](=O)[O-]` (centres undefined), which logD is on record?
The logD was 0.89.
